# Source: patent US20210322443A1 (MAPREG, priority 2015, published 2021)
# Experiments:
# [1] = molecular target: T1, human progesterone receptor(PR) (Homo sapiens, UniProt P06401); test: Progesterone receptor agonist transactivation (MMTV-luciferase) in transfected HEK293T cells; assay type: cell-based; conditions: 24 hours, increasing amounts, FIG. 1
# T1 construct: expressed in transfected cells; host or cells: HEK293T
# T1 sequence (P06401 1-933): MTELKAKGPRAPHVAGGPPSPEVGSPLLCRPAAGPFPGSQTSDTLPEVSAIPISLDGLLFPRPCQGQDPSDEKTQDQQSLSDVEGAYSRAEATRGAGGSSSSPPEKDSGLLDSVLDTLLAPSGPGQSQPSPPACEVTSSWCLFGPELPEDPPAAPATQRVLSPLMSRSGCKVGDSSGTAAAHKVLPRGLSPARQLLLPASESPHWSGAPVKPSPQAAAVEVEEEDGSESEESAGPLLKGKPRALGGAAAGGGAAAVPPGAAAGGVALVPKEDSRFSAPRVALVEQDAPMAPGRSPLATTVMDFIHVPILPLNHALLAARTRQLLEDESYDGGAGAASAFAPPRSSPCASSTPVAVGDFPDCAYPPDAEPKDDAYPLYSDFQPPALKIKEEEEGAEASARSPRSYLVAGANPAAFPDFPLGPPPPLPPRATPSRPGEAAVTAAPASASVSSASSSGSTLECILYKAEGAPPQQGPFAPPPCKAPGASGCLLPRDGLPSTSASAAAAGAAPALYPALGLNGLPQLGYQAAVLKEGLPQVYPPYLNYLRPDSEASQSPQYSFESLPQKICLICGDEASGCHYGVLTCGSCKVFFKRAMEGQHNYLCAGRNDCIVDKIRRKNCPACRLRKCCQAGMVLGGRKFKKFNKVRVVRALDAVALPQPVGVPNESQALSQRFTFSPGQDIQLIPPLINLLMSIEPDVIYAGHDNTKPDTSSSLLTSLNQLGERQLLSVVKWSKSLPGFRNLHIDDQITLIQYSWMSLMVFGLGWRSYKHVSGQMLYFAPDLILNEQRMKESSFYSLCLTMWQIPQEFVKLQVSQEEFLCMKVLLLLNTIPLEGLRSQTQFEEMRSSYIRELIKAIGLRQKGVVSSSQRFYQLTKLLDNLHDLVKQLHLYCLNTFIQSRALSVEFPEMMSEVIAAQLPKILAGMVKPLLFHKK
# Description: The main experimental setting used is the following: HEK293T cells were transiently transfected, using calcium phosphate precipitation technology, with expression vectors pSG5hPR (which permits expression of human progesterone receptor(PR)), pFC31-luc (contains the luciferase gene under the control of the MMTV promoter, which is in turn activated by binding of a progestin to progesterone receptor) and pcbetagal (which permits expression of betagalactosidase), and cultured during 24 hours with increasing amounts of various compositions: • 1. […] Test of progesterone receptor […] activity: transfected cells were cultured with progesterone (1 nM) and increasing amounts of RU486 (a well-known progesterone receptor antagonist) or 3-methoxy-pregnenolone. • With this setting, a compound with progesterone receptor antagonist activity competes with progesterone for the occupation of progesterone receptor and results in a progressive loss of transactivation activity when the amount of this compound is increased compared to progesterone.
# [2] = molecular target: Androgen Receptor (AR) (Rattus norvegicus, UniProt P15207); test: Radioligand binding assay, steroid hormone receptors; conditions: 1.5 nM [3H] Mibolerone, Rat recombinant E. coli, read-out: % inhibition of specific binding
# Androgen Receptor (AR), sequence (P15207 whole entry S389L): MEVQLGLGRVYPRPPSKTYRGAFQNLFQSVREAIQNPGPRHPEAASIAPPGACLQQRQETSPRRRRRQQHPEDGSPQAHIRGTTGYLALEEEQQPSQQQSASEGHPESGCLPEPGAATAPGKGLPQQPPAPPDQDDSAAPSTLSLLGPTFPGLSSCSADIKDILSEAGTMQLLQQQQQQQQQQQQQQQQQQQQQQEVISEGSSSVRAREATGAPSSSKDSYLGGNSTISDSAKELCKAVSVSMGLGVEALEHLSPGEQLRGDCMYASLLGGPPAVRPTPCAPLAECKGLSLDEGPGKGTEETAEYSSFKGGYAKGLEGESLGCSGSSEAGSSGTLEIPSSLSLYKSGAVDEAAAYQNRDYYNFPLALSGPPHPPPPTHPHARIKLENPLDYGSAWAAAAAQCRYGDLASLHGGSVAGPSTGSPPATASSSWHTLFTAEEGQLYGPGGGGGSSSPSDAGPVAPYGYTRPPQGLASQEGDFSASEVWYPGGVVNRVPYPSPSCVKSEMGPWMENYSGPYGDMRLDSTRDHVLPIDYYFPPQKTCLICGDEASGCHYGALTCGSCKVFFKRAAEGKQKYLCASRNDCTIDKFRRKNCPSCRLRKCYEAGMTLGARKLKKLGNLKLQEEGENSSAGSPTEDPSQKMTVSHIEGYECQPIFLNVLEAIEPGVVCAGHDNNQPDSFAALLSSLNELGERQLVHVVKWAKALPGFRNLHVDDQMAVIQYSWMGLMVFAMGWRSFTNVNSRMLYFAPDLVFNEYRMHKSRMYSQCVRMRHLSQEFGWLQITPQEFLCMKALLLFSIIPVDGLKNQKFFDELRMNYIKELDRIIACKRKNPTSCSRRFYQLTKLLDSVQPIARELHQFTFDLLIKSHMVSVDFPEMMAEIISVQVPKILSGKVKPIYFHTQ
# Description: Binding affinity of 3β-methoxy-PREG (MAP4343) for receptors of steroid hormones was evaluated using radioligand binding assays.
# [3] = molecular target: Muscarinic (Cholinergic) M1 (Homo sapiens, UniProt P11229); test: CNS receptor binding assay; conditions: [3H] pirenzepine, Human recombinant (CHO cells), read-out: % Inhibition of control specific binding
# Muscarinic (Cholinergic) M1, sequence (P11229 whole entry): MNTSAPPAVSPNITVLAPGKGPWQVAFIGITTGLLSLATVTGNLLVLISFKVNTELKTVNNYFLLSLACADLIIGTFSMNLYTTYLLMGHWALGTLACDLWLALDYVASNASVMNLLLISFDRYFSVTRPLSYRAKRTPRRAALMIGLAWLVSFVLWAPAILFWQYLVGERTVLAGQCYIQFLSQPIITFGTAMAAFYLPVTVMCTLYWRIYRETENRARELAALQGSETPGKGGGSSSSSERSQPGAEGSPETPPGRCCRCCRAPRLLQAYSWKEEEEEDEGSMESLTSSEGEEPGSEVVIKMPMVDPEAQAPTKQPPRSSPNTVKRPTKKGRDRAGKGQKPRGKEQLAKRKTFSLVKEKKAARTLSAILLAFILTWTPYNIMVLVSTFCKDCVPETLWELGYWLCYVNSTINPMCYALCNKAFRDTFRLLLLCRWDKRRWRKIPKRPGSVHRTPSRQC
# [4] = molecular target: Muscarinic (Cholinergic) M4 (Homo sapiens, UniProt P08173); test: CNS receptor binding assay; conditions: [3H] 4-DAMP, Human recombinant (CHO cells), read-out: % Inhibition of control specific binding
# Muscarinic (Cholinergic) M4, sequence (P08173 whole entry): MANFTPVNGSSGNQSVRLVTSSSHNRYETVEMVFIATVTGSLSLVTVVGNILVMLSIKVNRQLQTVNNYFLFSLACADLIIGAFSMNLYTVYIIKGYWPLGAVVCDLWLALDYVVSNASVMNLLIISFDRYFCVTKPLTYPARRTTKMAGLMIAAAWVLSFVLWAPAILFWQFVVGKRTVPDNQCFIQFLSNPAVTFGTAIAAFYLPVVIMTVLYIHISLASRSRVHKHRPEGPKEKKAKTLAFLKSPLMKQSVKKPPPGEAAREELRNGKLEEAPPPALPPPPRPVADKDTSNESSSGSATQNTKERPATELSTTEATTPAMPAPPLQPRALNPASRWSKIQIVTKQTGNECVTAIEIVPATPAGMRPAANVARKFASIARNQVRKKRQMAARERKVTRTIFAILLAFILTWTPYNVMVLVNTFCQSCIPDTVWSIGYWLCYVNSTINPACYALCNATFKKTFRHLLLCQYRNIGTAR
# [5] = molecular target: Serotoninergic Transporter (Homo sapiens, UniProt P31645); test: CNS receptor binding assay; conditions: [3H] imipramine, Human recombinant (CHO cells), read-out: % Inhibition of control specific binding
# Serotoninergic Transporter, sequence (P31645 whole entry): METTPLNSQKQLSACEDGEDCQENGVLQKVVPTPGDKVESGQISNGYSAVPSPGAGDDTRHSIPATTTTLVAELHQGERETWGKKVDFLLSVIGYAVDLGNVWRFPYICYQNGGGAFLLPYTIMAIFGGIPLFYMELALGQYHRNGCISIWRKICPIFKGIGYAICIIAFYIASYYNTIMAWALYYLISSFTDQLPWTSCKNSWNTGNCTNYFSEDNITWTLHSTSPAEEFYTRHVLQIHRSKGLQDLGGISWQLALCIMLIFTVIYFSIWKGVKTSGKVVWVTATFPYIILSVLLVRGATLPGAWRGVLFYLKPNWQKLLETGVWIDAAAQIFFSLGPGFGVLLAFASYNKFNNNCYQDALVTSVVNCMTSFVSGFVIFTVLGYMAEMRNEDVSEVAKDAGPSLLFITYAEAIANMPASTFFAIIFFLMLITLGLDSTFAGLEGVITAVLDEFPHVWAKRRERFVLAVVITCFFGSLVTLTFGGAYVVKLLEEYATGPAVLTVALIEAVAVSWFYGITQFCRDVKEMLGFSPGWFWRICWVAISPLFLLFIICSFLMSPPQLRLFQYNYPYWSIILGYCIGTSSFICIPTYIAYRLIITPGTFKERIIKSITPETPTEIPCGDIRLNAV
# [6] = system: NMDA PCP site; test: CNS receptor binding assay; conditions: 10 μM; [3H] TCP; rat cerebral cortex
# [7] = molecular target: Oppioid δ2 (Homo sapiens, UniProt P41143); test: CNS receptor binding assay; conditions: [3H] DADLE, Human recombinant (CHO cells), read-out: % Inhibition of control specific binding
# [8] = molecular target: Oppioid μ (Homo sapiens, UniProt P35372); test: CNS receptor binding assay; conditions: [3H] DAMGO, Human recombinant (HEK-293 cells), read-out: % Inhibition of control specific binding
# Oppioid μ, sequence (P35372 whole entry): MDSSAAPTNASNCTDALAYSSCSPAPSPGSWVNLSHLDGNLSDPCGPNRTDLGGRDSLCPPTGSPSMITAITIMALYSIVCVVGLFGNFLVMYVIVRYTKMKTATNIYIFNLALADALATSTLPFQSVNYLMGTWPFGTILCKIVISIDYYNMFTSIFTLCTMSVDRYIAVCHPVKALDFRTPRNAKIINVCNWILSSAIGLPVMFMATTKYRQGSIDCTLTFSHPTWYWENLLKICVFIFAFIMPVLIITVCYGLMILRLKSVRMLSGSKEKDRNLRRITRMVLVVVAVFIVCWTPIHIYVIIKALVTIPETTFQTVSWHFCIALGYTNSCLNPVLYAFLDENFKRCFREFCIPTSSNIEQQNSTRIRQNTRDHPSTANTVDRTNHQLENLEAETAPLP
# [9] = molecular target: MAP2 (Homo sapiens, UniProt P11137); test: Binding by displacement of PREG-3H
# [10] = molecular target: purified tubulin and MAP2 (Homo sapiens, UniProt P11137); test: Increase in optical density at 345 nm of purified tubulin and MAP2 (microtubule polymerization); assay type: biochemical; conditions: 37° C., GTP
# Description: Activity is measured by the increase in optical density at 345 nm of a mixture of purified tubulin and MAP2, incubated at 37° C. in the presence of GTP.
# [11] = molecular target: Noradrenergic β1 (Homo sapiens, UniProt P08588); test: CNS receptor binding assay; conditions: read-out: % Inhibition of control specific binding
# Noradrenergic β1, sequence (P08588 whole entry): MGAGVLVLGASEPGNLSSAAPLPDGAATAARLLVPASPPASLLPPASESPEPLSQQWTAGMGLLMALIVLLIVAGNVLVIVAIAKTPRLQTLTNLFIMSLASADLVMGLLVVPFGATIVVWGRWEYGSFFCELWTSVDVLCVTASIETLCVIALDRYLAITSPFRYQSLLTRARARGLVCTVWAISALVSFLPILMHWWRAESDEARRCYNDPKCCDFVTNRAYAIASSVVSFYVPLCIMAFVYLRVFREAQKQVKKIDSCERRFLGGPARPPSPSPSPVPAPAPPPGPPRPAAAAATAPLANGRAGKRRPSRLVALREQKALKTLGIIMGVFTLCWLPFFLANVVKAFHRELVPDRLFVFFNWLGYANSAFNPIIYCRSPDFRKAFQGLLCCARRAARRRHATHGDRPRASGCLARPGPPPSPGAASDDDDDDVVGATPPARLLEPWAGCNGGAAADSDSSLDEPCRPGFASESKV
# [12] = molecular target: Serotoninergic 5-HT2C (Homo sapiens, UniProt P28335); test: CNS receptor binding assay; conditions: read-out: % Inhibition of control specific binding
# Serotoninergic 5-HT2C, sequence (P28335 33-458): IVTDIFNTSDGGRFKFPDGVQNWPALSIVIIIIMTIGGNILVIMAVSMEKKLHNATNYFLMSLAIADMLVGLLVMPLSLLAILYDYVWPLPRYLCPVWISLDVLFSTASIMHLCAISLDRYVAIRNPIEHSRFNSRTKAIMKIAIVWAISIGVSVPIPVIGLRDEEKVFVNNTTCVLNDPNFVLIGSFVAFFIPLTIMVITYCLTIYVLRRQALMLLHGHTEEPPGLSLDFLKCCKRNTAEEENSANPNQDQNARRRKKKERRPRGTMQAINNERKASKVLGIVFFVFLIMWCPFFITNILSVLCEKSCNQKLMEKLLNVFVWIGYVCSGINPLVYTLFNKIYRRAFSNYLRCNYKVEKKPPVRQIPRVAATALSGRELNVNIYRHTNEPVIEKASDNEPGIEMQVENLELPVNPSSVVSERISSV
# [13] = molecular target: Serotoninergic 5-HT5A (Homo sapiens, UniProt P47898); test: CNS receptor binding assay; conditions: read-out: % Inhibition of control specific binding
# Serotoninergic 5-HT5A, sequence (P47898 whole entry): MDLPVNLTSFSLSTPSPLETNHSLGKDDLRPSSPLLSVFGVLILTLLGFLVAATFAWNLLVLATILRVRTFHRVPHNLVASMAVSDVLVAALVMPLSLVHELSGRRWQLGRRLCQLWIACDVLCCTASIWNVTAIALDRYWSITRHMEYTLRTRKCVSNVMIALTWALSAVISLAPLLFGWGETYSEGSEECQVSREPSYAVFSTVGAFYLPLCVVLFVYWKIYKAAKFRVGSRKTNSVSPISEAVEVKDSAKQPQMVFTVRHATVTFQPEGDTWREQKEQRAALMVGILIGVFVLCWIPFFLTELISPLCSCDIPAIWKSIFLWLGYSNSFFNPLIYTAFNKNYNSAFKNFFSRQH
# [14] = molecular target: Dopaminergic D1 (Homo sapiens, UniProt P21728); test: CNS receptor binding assay; conditions: read-out: % Inhibition of control specific binding
# Dopaminergic D1, sequence (P21728 whole entry): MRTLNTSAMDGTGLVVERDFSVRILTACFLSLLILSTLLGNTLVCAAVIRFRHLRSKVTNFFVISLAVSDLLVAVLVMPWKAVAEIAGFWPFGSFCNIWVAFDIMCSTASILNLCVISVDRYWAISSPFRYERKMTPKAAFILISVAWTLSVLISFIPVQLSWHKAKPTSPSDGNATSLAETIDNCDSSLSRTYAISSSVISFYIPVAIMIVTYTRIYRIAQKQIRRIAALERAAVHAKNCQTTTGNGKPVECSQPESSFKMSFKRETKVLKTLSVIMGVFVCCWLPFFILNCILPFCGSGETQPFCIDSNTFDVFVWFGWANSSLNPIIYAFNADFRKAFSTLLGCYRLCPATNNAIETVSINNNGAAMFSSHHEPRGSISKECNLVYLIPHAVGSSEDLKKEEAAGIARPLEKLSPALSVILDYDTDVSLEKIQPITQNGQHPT
# [15] = molecular target: Dopaminergic D4.4 (Homo sapiens, UniProt P21917); test: CNS receptor binding assay; conditions: read-out: % Inhibition of control specific binding
# Dopaminergic D4.4, sequence (P21917 whole entry): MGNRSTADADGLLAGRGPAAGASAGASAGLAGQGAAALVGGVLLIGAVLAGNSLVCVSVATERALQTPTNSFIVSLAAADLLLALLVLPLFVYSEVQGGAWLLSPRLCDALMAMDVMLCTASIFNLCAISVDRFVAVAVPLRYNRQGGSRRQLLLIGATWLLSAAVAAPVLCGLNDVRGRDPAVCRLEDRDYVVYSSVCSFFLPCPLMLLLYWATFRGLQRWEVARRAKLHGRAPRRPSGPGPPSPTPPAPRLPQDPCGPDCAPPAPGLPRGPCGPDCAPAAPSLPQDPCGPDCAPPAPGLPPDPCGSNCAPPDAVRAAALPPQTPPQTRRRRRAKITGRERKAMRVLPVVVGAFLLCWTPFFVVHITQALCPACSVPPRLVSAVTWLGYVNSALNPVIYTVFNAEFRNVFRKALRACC
smiles,measurement,setting,value
"CO[C@H]1CC[C@@]2(C)C(=CC[C@H]3[C@@H]4CC[C@H](C(C)=O)[C@@]4(C)CC[C@@H]32)C1 [MAP4343, 3β-methoxy-pregna-5-ene-20-one]","progesterone receptor agonist activity (transactivation, luciferase expression)",[1],does not have progesterone receptor agonist activity
same,inhibition at 10 µM,[2],< 25%
same,inhibition at 10 µM,[3],-3%
same,inhibition at 10 µM,[4],20%
same,inhibition at 10 µM,[5],3%
same,% Inhibition of control specific binding,[6],−10%
same,inhibition at 10 µM,[7],-3%
same,inhibition at 10 µM,[8],0%
same,"Affinity (index of binding, percent of PREG)",[9],100% of PREG
same,Activity (percent of PREG),[10],100% of PREG
same,inhibition at 10 µM,[11],1%
same,inhibition at 10 µM,[12],7%
same,inhibition at 10 µM,[13],-5%
same,inhibition at 10 µM,[14],2%
same,inhibition at 10 µM,[15],6%
